Measurements taken from patent US20020019527A1 (priority 2000, published 2002).
Counter-ions that a name gives are not always drawn.

These compounds were tested against T1, Farnesyltransferase (FTase) (Bos taurus, UniProt P29702+P49355) (assay: Farnesyltransferase inhibition (scintillation proximity assay, [3H]-FPP / biotin-K-ras peptide)). Conditions: compound at 10^−6 M; bovine FTase, 37° C., 30 minutes.
T1 construct: precipitation from a beef brain homogenate; from tissue; host or cells: bovine brain
T1 sequence (P49355 whole entry, one chain of several): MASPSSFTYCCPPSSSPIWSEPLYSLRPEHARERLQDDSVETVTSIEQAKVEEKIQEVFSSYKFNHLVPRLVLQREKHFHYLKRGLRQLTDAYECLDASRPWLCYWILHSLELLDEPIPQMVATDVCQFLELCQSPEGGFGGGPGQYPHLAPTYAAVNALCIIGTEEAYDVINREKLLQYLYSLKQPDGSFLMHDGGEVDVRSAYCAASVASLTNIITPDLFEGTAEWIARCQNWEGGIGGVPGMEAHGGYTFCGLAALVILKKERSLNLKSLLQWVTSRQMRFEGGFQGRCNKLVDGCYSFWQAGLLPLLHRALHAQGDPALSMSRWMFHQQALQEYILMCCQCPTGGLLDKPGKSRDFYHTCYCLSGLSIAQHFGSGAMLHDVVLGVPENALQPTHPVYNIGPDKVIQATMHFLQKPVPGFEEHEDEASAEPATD
Assay type: biochemical, bovine
Outline: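 Bovine brain FTase, partially purified by 30–50% saturated ammonium sulfate precipitation and DEAE Sepharose chromatography, separated from GGTase I/II. Scintillation proximity read-out of [3H]-FPP transfer to biotin-K-ras peptide, counted 1 h after quench. Compounds added from ethanol with 10-fold dilution into assay.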

Row | inhibition at 1 µM | Structure (SMILES) | % Inhibition at 10^−6M
1 | 41% | Cc1ccccc1-c1cc(C(OCc2ccccc2)c2cncs2)ccc1C#N (stereo not shown) [Example 213, 5-((benzyloxy)(1,3-thiazol-5-yl)methyl)-2′-methyl(1,1′-biphenyl)-2-carbonitrile hydrochloride] | 
2 | 20% | Cc1ccccc1-c1cc(C(O)c2cncs2)ccc1C#N (stereo not shown) [Example 214, 5-(hydroxy(1,3-thiazol-5-yl)methyl)-2′-methyl(1,1′-biphenyl)-2-carbonitrile] | 
3 | 29% | Cc1ccccc1-c1cc(CN(Cc2ccccc2)Cc2cccnc2)ccc1C#N [Example 215, 5-((benzyl(3-pyridinylmethyl)amino)methyl)-2′-methyl(1,1′-biphenyl)-2-carbonitrile hydrochloride] | 
4 | 27% | Cc1ccccc1-c1cc(NCc2cccnc2)ccc1C#N [Example 216, 2′-methyl-5-((3-pyridinylmethyl)amino)(1,1′-biphenyl)-2-carbonitrile] | 
5 | 71% | Cc1ccccc1-c1cc(N(Cc2ccccc2)Cc2cccnc2)ccc1C#N [Example 217, 5-(benzyl(3-pyridinylmethyl)amino)-2′-methyl(1,1′-biphenyl)-2-carbonitrile] | 
6 | 50% | Cc1ccccc1-c1cc(NCc2cncn2C)ccc1C#N [Example 225, 2′-methyl-5-(((1-methyl-1H-imidazol-5-yl)methyl)amino)(1,1′-biphenyl)-2-carbonitrile] | 
7 | 100% | Cc1ccccc1-c1cc(N(Cc2ccccc2)Cc2cncn2C)ccc1C#N [Example 226, 5-(benzyl((1-methyl-1H-imidazol-5-yl)methyl)amino)-2′-methyl(1,1-biphenyl)-2-carbonitrile] | 
8 | 100% | CN(Cc1cncn1C)c1ccc(C#N)c(-c2cccc3ccccc23)c1 [Example 227, 4-(methyl((1-methyl-1H-imidazol-5-yl)methyl)amino)-2-(1-naphthyl)benzonitrile] | 
9 | 100% | C=CCN(Cc1cncn1C)c1ccc(C#N)c(-c2cccc3ccccc23)c1 [Example 228, 4-(allyl( (1-methyl-1H-imidazol-5-yl)methyl)amino)-2-(1-naphthyl)benzonitrile] | 
10 | 100% | Cc1ccccc1-c1cc(N(Cc2ccc(C#N)cc2)Cc2cncn2C)ccc1C#N [Example 229, 5-((4-cyanobenzyl)((1-methyl-1H-imidazol-5-yl)methyl)amino)-2′-methyl(1,1′-biphenyl)-2-carbonitrile] | 
11 | 100% | Cn1cncc1CN(CCCc1ccccc1)c1ccc(C#N)c(-c2cccc3ccccc23)c1 [Example 230, 4-(((1-methyl-1H-imidazol-5-yl)methyl)(3-phenylpropyl)amino)-2-(1-naphthyl)benzonitrile] | 
12 | 100% | Cn1cncc1CN(Cc1ccc(C#N)cc1)c1ccc(C#N)c(-c2cccc3ccccc23)c1 [Example 231, 4-((4-cyanobenzyl)((1-methyl-1H-imidazol-5-yl)methyl)amino)-2-(1-naphthyl)benzonitrile] | 
13 | 100% | Cn1cncc1CN(Cc1ccccc1)c1ccc(C#N)c(-c2cccc3ccccc23)c1 [Example 232, 4-(benzyl((1-methyl-1H-imidazol-5-yl)methyl)amino)-2-(1-naphthyl)benzonitrile] | 
14 | 100% | CCCCCCN(Cc1cncn1C)c1ccc(C#N)c(-c2cccc3ccccc23)c1 [Example 233, 4-(hexyl((1-methyl-1H-imidazol-5-yl)methyl)amino)-2-(1-naphthyl)benzonitrile] | 
15 | 100% | Cn1cncc1CNc1ccc(C#N)c(-c2cccc3ccccc23)c1 [Example 234, 4-(((1-methyl-1H-imidazol-5-yl)methyl)amino)-2-(1-naphthyl)benzonitrile] | 
16 | 100% | Cn1cncc1CN(C(=O)c1ccccc1)c1ccc(C#N)c(-c2cccc3ccccc23)c1 [Example 235, N-(4-cyano-3-(1-naphthyl)phenyl)-N-((1-methyl-1H-imidazol-5-yl)methyl)benzamide] | 
17 | 93% | Cc1ccccc1-c1cc(N(Cc2cncn2C)C(=O)c2ccccc2)ccc1C#N [Example 236, N-(6-cyano-2′-methyl(1,1′-biphenyl)-3-yl)-N-((1-methyl-1H-imidazol-5-yl)methyl)benzamide] | 
18 | 100% | Cc1ccccc1-c1cc(N(Cc2cccc(C#N)c2)Cc2cncn2C)ccc1C#N [Example 237, 5-((3-cyanobenzyl)((1-methyl-1H-imidazol-5-yl)methyl)amino)-2′-methyl(1,1′-biphenyl)-2-carbonitrile] | 
19 | 95% | Cn1cncc1C(OCc1ccc(Cl)c(Cl)c1)c1ccc(C#N)c(-c2cccc3cccnc23)c1 (stereo not shown) [Example 240, 4-(((3,4-dichlorobenzyl)oxy)(1-methyl-1H-imidazol-5-yl)methyl)-2-(8-quinolinyl)benzonitrile dihydrochloride] | 

More lines, now with the values behind:

Row | Structure (SMILES) | inhibition at 1 µM | % Inhibition at 10^−6M
20 | Cn1cncc1CN(Cc1ccc(C#N)c(-c2cccc3ccccc23)c1)C(=O)c1ccc(C#N)cc1 [Example 196, 4-cyano-N-(4-cyano-3-(1-naphthyl)benzyl)-N-((1-methyl-1H-imidazol-5-yl)methyl)benzamide] | 90% | 
21 | Cn1cncc1CN(Cc1ccc(C#N)c(-c2cccc3ccccc23)c1)C(=O)c1ccc(Cl)c(Cl)c1 [Example 197, 3,4-dichloro-N-(4-cyano-3-(1-naphthyl)benzyl)-N-((1-methyl-1H-imidazol-5-yl)methyl)benzamide] | 93% | 
22 | Cn1cncc1CN(Cc1ccc(C#N)c(-c2cccc3ccccc23)c1)C(=O)c1ccc(Cl)c(F)c1 [Example 198, 4-chloro-N-(4-cyano-3-(1-naphthyl)benzyl)-3-fluoro-N-((1-methyl-1H-imidazol-5-yl)methyl)benzamide] | 94% | 
23 | Cn1cncc1CN(Cc1ccc(C#N)c(-c2cccc3ccccc23)c1)C(=O)c1cnc(Cl)c(Cl)c1 [Example 199, 5,6-dichloro-N-(4-cyano-3-(1-naphthyl)benzyl)-N-((1-methyl-1H-imidazol-5-yl)methyl)nicotinamide] | 89% | 
24 | Cn1cncc1C(OCc1ccc(C#N)cc1)c1ccc(C#N)c(-c2ccccc2C=O)c1 (stereo not shown) [Example 200, 5-(((4-cyanobenzyl)oxy)(1-methyl-1H-imidazol-5-yl)methyl)-2′-formyl(1,1′-biphenyl)-2-carbonitrile hydrochloride] | 99% | 
25 | Cn1cncc1C(OCc1ccc(C#N)cc1)c1ccc(C#N)c(-c2ccccc2C(F)(F)F)c1 (stereo not shown) [Example 201, 5-(((4-cyanobenzyl)oxy)(1-methyl-1H-imidazol-5-yl)methyl)-2′-(trifluoromethyl)(1,1′-biphenyl)-2-carbonitrile hydrochloride] | 99% | 
26 | Cn1cncc1C(OCc1ccc(C#N)cc1)c1ccc(C#N)c(-c2ccc(Cl)cc2Cl)c1 (stereo not shown) [Example 202, 2′,4′-dichloro-5-(((4-cyanobenzyl)oxy)(1-methyl-1H-imidazol-5-yl)methyl)(1,1′-biphenyl)-2-carbonitrile hydrochloride] | 92% | 
27 | Cn1cncc1C(OCc1ccc(C#N)cc1)c1ccc(C#N)c(-c2cc3ccccc3s2)c1 (stereo not shown) [Example 203, 2-(1-benzothien-2-yl)-4-(((4-cyanobenzyl)oxy)(1-methyl-1H-imidazol-5-yl)methyl)benzonitrile hydrochloride] | 86% | 
28 | Cn1cncc1C(OCc1ccc(C#N)cc1)c1ccc(C#N)c(-c2ccccc2CO)c1 (stereo not shown) [Example 204, 5-(((4-cyanobenzyl)oxy)(1-methyl-1H-imidazol-5-yl)methyl)-2′-(hydroxymethyl)(1,1′-biphenyl)-2-carbonitrile] | 96% | 
29 | Cn1cncc1C(OCc1ccc(C#N)cc1)c1ccc(C#N)c(-c2ccccc2C(=O)O)c1 (stereo not shown) [Example 205, 2′-cyano-5′-(((4-cyanobenzyl)oxy)(1-methyl-1H-imidazol-5-yl)methyl)(1,1′-biphenyl)-2-carboxylic acid] | 90% | 
30 | Cn1cncc1CN(Cc1ccc(C#N)cc1)C(=O)c1ccc(C#N)c(-c2cccc3cccnc23)c1 [Example 206, 4-cyano-N-(4-cyanobenzyl)-N-((1-methyl-1H-imidazol-5-yl)methyl)-3-(8-quinolinyl)benzamide] | 88% | 
31 | Cn1cncc1CN(Cc1ccc(C#N)c(-c2cccc3ccccc23)c1)Cc1cc(OC(F)(F)F)ccc1O [Example 207, 4-(((2-hydroxy-5-(trifluoromethoxy)benzyl)((1-methyl-1H-imidazol-5-yl)methyl)-amino)methyl)-2-(1-naphthyl)benzonitrile] | 91% | 
32 | COC(=O)c1ccc(CN(Cc2ccc(C#N)c(-c3cccc4ccccc34)c2)Cc2cncn2C)nc1 [Example 208, methyl 6-(((4-cyano-3-(1-naphthyl)benzyl)((1-methyl-1H-imidazol-5-yl)methyl)-amino)-methyl)nicotinate] | 95% | 
33 | CCOC(=O)N1CCC(N(Cc2ccc(C#N)c(-c3cccc4ccccc34)c2)Cc2cncn2C)CC1 [Example 209, ethyl 4-((4-cyano-3-(1-naphthyl)benzyl)((1-methyl-1H-imidazol-5-yl)methyl)-amino)-1-piperidinecarboxylate] | 93% | 
34 | Cc1ccccc1-c1cc(C(Cn2ccnc2)OCc2ccccc2)ccc1C#N (stereo not shown) [Example 210, 5-(1-(benzyloxy)-2-(1H-imidazol-1-yl)ethyl)-2′-methyl(1,1′-biphenyl)-2-carbonitrile hydrochloride] | 48% | 
35 | Cc1ccccc1-c1cc(C(O)c2cccnc2)ccc1C#N (stereo not shown) [Example 211, 5-(hydroxy(3-pyridinyl)methyl)-2′-methyl(1,1′-biphenyl)-2-carbonitrile] | 30% | 
36 | Cc1ccccc1-c1cc(CNc2cccnc2)ccc1C#N [Example 212, 2′-methyl-5-((3-pyridinylamino)methyl)(1,1′-biphenyl)-2-carbonitrile] | 10% | 
37 | Cl.Cl.Cn1cncc1C(OCc1ccc(C(F)(F)F)c(F)c1)c1ccc(C#N)c(-c2cccc3cccnc23)c1 (stereo not shown) [Example 241, 4-(((3-fluoro-4-(trifluoromethyl)benzyl)oxy)(1-methyl-1H-imidazol-5-yI)methyl)-2-(8-quinolinyl)benzonitrile dihydrochloride] |  | 98%
